In US12630551B2, “Endocyclic pyrimidinone compounds, and preparation methods, compositions and use thereof” (NEUSCO BIOTECH LIMITED, priority 2020, dated 2026):

Key:
[1] = target: T1, recombinant human Lp-PLA2 enzyme (Homo sapiens, UniProt Q13093); assay: Recombinant human Lp-PLA2 (rhLp-PLA2) assay (PED6 assay); format: biochemical; conditions: PED6 substrate, enzyme 4 nM or 110 pM, 30-min pre-incubation, fluorescence ex 480/em 540; for IC50: read-out: rhLp-PLA2 (pIC50) (converted)
T1 sequence (Q13093 22-441): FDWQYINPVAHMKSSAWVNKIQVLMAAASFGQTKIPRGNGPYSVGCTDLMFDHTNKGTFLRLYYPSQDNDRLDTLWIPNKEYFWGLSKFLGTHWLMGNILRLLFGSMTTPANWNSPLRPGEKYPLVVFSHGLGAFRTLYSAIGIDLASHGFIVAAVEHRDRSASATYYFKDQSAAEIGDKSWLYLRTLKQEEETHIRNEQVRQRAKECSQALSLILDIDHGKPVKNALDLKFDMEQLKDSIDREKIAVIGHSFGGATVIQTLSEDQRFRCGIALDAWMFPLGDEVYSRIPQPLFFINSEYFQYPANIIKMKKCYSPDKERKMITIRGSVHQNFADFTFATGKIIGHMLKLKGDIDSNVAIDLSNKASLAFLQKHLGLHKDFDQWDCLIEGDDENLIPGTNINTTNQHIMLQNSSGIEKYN
Experimental: (1) Recombinant Human Lp-PLA2 (rhLp-PLA2) Assay (Also Known as PED6 Assay) PED6 is a fluorescently labeled phospholipid, which could be purchased directly from Invitogene or Molecular Probes. PED6 has a fluorescence quenching […] and a Bodipy fluorescein (FL) group at the sn2 position. Once cleaved by an Lp-PLA2 enzyme, it will release the FL group, resulting in enhanced fluorescence. […] The plate was centrifuged at 500 rpm for 10 seconds.

[2] = target: T2, Lp-PLA2 enzyme in human plasma (Homo sapiens, UniProt Q13093); assay: Human plasma Lp-PLA2 assay (Thio-PAF assay); format: biochemical; conditions: mixed human plasma, 2-thio-PAF substrate, CPM, 30-min pre-incubation, fluorescence ex 380/em 485; for IC50: read-out: Thio-PAF (pIC50) (converted)
T2 construct: from tissue; host or cells: mixed (pooled) human plasma
T2 sequence (Q13093 22-441): T1 sequence (Q13093 22-441)
Experimental: (2) Human Plasma Lp-PLA2 Assay (Also Known as Thio-PAF Assay) The human plasma assay was conducted using the […] analog of PAF (phosphatidylcholine). After hydrolysis, it would generate phospholipids containing free sulfhydryl groups, which would be subjected to Michael addition with CPM to generate fluorescence-enhancing maleimide. Continuous quantitative analysis of thiol could be conducted by detecting the fluorescence intensity. This assay can be used to detect the inhibitory activity of the Lp-PLA2 inhibitor on the Lp-PLA2 enzyme in human plasma. […] The plate was centrifuged at 500 rpm for 10 seconds. […] Two minutes later, the reaction was quenched with 5 μl of 5% trifluoroacetic acid.

| SMILES | IC50 [1] [nM] | IC50 [2] [nM] | rhLp-PLA2 (pIC50) [1] | Thio-PAF (pIC50) [2] |
| --- | --- | --- | --- | --- |
| O=c1nc(OCc2ccc(F)cc2F)cc2n1CC1CCCN2C1 (stereo not shown) [Compound 2] | 2.51 | 31.6 |  |  |
| O=c1nc(OCc2cc(F)c(F)cc2F)cc2n1CC1CCCN2C1 (stereo not shown) [Compound 3] | 31.6 | 316 |  |  |
| O=c1nc(OCc2cc(F)cc(F)c2)cc2n1CC1CCCN2C1 (stereo not shown) [Compound 4] | 3.16 | 39.8 |  |  |
| O=c1nc(OCc2cc(F)c(Oc3cccc(C(F)(F)F)c3)c(F)c2)cc2n1CC1CCCN2C1 (stereo not shown) [Compound 10] | 0.126 | 10 |  |  |
| O=c1nc(OCc2cc(F)c(Oc3cccc(OC(F)(F)F)c3)c(F)c2)cc2n1CC1CCCN2C1 (stereo not shown) [Compound 12] | 0.316 | 15.8 |  |  |
| O=c1nc(OCc2cc(F)c(Oc3ccc(OC(F)(F)F)c(Cl)c3)c(F)c2)cc2n1CC1CCCN2C1 (stereo not shown) [Compound 15] | 0.2 | 12.6 |  |  |
| O=c1nc(OCc2cc(F)c(Oc3cccc(C(F)(F)F)c3)c(F)c2)cc2n1C[C@H]1CCCN2C1 [Compound 20] | 0.0316 | 3.16 |  |  |
| O=c1nc(OCc2cc(F)cc(F)c2)cc2n1C[C@H]1CCCN2C1 [Compound 21] | 3.16 | 39.8 |  |  |
| O=c1nc(OCc2cc(F)c(F)cc2F)cc2n1C[C@H]1CCCN2C1 [Compound 22] | 31.6 | 316 |  |  |
| O=c1nc(OCc2cc(F)cc(F)c2)cc2n1C[C@H]1CCCN2C1 [Compound 27] |  | 50.1 | 8.5 |  |
| O=c1nc(OCc2cc(F)c(F)cc2F)cc2n1C[C@H]1CCCN2C1 [Compound 28] | 39.8 |  |  | 6.5 |
| O=c1nc(OCc2cc(F)cc(F)c2)cc2n1C[C@@H]1CN2CCO1 [Compound 33] | 3.98 | 79.4 |  |  |
| O=c1nc(OCc2cc(F)c(F)cc2F)cc2n1C[C@@H]1CN2CCO1 [Compound 34] | 63.1 | 501 |  |  |
| O=c1nc(OCc2cc(F)cc(F)c2)cc2n1C[C@@H]1CN2CCO1 [Compound 39] |  | 100 | 8.4 |  |
| O=c1nc(OCc2cc(F)c(F)cc2F)cc2n1C[C@@H]1CN2CCO1 [Compound 40] | 50.1 |  |  | 6.3 |

Other lines, results leading:

| IC50 [1] [nM] | IC50 [2] [nM] | rhLp-PLA2 (pIC50) [1] | Thio-PAF (pIC50) [2] | SMILES |
| --- | --- | --- | --- | --- |
| 0.0316 | 3.16 |  |  | O=c1nc(OCc2cc(F)c(Oc3ccnc(C(F)(F)F)c3)c(F)c2)cc2n1CC1CCCN2C1 (stereo not shown) [Compound 5] |
| 0.0631 | 6.31 |  |  | Cc1cc(Oc2c(F)cc(COc3cc4n(c(=O)n3)CC3CCCN4C3)cc2F)ccn1 (stereo not shown) [Compound 6] |
| 0.0794 | 7.94 |  |  | Cc1ccc(Oc2c(F)cc(COc3cc4n(c(=O)n3)CC3CCCN4C3)cc2F)cn1 (stereo not shown) [Compound 7] |
| 0.316 | 15.8 |  |  | Cc1ncc(Oc2c(F)cc(COc3cc4n(c(=O)n3)CC3CCCN4C3)cc2F)cn1 (stereo not shown) [Compound 8] |
| 0.1 | 10 |  |  | O=c1nc(OCc2cc(F)c(Oc3cnc(C(F)(F)F)nc3)c(F)c2)cc2n1CC1CCCN2C1 (stereo not shown) [Compound 9] |
| 0.0794 | 7.94 |  |  | Cc1cc(Oc2c(F)cc(COc3cc4n(c(=O)n3)CC3CCCN4C3)cc2F)ccc1Cl (stereo not shown) [Compound 11] |
| 0.0631 | 7.94 |  |  | O=c1nc(OCc2cc(F)c(Oc3ccc(C(F)(F)F)cc3)c(F)c2)cc2n1CC1CCCN2C1 (stereo not shown) [Compound 13] |
| 0.0398 | 6.31 |  |  | O=c1nc(OCc2cc(F)c(Oc3ccc(Cl)c(C(F)(F)F)c3)c(F)c2)cc2n1CC1CCCN2C1 (stereo not shown) [Compound 14] |
| 0.0794 | 7.94 |  |  | O=c1nc(OCc2cc(F)c(Oc3ccc(C(F)(F)F)c(Cl)c3)c(F)c2)cc2n1CC1CCCN2C1 (stereo not shown) [Compound 16] |
| 0.0794 | 7.94 |  |  | Cc1ccc(Oc2c(F)cc(COc3cc4n(c(=O)n3)C[C@H]3CCCN4C3)cc2F)cn1 [Compound 18] |
| 0.1 | 7.94 |  |  | Cc1ccc(Oc2c(F)cc(COc3cc4n(c(=O)n3)C[C@@H]3CCCN4C3)cc2F)cn1 [Compound 24] |
| 0.0398 | 3.98 |  |  | O=c1nc(OCc2cc(F)c(Oc3cccc(C(F)(F)F)c3)c(F)c2)cc2n1C[C@@H]1CCCN2C1 [Compound 26] |
| 0.158 | 10 |  |  | Cc1ccc(Oc2c(F)cc(COc3cc4n(c(=O)n3)C[C@@H]3CN4CCO3)cc2F)cn1 [Compound 30] |
| 0.126 | 12.6 |  |  | Cc1ccc(Oc2c(F)cc(COc3cc4n(c(=O)n3)C[C@H]3CN4CCO3)cc2F)cn1 [Compound 36] |
